The source of these data is patent US11827657B2, “Boron containing pyrazole compounds, compositions comprising them, methods and uses thereof” (BOEHRINGER INGELHEIM ANIMAL HEALTH USA INC., priority 2020, dated 2023).

Chain of JAK1 (P23458 whole entry, species assumed): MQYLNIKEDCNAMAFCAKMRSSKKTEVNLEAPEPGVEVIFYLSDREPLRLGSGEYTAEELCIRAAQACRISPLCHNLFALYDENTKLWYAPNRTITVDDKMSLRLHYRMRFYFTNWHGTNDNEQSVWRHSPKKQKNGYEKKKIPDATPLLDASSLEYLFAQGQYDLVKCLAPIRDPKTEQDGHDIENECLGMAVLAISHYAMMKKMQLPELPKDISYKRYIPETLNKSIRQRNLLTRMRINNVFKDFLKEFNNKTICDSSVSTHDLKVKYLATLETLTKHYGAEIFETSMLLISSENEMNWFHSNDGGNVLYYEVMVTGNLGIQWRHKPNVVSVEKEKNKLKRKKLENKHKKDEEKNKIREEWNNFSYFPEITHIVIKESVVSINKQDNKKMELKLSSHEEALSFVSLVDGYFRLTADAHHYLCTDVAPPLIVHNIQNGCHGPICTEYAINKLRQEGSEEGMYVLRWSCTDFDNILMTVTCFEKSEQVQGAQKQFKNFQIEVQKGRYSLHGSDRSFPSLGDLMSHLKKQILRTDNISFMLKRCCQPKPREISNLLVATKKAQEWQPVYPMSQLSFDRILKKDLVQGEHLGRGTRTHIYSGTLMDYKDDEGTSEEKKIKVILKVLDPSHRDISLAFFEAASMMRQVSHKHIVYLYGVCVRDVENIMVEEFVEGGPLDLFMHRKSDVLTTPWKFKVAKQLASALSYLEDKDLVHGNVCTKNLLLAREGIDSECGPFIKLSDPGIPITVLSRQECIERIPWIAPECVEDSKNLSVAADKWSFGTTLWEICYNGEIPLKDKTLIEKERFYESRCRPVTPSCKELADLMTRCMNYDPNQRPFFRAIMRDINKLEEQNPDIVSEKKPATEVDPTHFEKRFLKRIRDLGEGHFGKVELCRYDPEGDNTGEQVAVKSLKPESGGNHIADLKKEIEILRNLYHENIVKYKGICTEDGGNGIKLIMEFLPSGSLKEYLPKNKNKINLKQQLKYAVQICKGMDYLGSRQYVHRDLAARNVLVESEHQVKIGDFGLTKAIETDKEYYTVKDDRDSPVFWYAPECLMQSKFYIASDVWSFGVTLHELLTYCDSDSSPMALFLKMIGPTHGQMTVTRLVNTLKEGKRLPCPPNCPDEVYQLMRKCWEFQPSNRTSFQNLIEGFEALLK

The test addresses JAK1 (Homo sapiens, UniProt P23458). Description: Biochemical Kinase Assay (JAK), 33P-ATP filter-binding. To be noted: Biochemical Kinase Inhibition Assay; potency level of IC50; read-out: JAK1 (range). The protocol:
Biochemical Kinase Assay Protocol (JAK) • Reagent: Base Reaction buffer; 20 mM Hepes (pH 7.5), 10 mM MgCl2, 1 mM EGTA, 0.02% Brij™ 35, 0.02 mg/ml BSA, 0.1 mM Na3VO4, 2 mM DTT, 1% DMSO, where required cofactors were added individually to each kinase reaction.
Reaction Procedure: • 1. Prepared indicated substrate in freshly prepared Base Reaction Buffer • 2. Delivered any required cofactors to the substrate solution above • 3. Delivered indicated kinase into the substrate solution and gently mix • 4. Delivered compounds in DMSO into the kinase reaction mixture by Acoustic technology (Echo550; nanoliter range), incubated for 20 minutes at room temperature • 5. Delivered 33P-ATP into the reaction mixture to initiate the reaction. • 6. Incubated kinase reaction for 2 hours at room temperature • 7. Reactions were spotted onto P81 ion exchange paper • 8. Detected kinase activity by filter-binding method.
Compounds according to the present invention were tested in the Biochemical Kinase Assay Protocol. The results are provided below in Table 1, wherein the potency levels A, B, and C in the columns labeled JAK1 (range) correspond to IC50 as follows: A<10 nM; B=10-50 nM and C>50 nM. The Example Number entries formatted ##a represent stereoisomer one and entries formatted ##b represent stereoisomer two.
`N#C[C@@H]1CCOC[C@H]1n1cc(C(N)=O)c(Nc2cc(Cl)c3c(c2)C=CB(O)O3)n1` (single isomer, unassigned) [Example 13a, 3-[(8-chloro-2-hydroxy-1,2-benzoxaborinin-6-yl)amino]-1-[trans-4-cyanotetrahydro-2H-pyran-3-yl]pyrazole-4-carboxamide]: the IC50 was < 10 nM.
In the case of `Cc1cc2c(cc1Nc1nn([C@@H]3COCC[C@H]3C#N)cc1C(N)=O)C=CB(O)O2` (single isomer, unassigned) [Example 46a, 1-(trans-4-cyanotetrahydro-2H-pyran-3-yl)-3-((2-hydroxy-7-methyl-2H-benzo[e][1,2]oxaborinin-6-yl)amino)-1H-pyrazole-4-carboxamide], the IC50 was > 50 nM.
As to `N#CC1CCOCC1n1cc(C(N)=O)c(Nc2ccc3c(c2)C(Cl)=CB(O)O3)n1` (stereo not drawn) [Example 43, 3-[(4-chloro-2-hydroxy-1,2-benzoxaborinin-6-yl)amino]-1-[trans-4-cyanotetrahydro-2H-pyran-3-yl]pyrazole-4-carboxamide], the IC50 was < 10 nM.
In the case of `Cc1cc(Nc2nn(C3COCCC3C#N)cc2C(N)=O)cc2c1B(O)OC2` (single isomer, unassigned) [Example 6a, 1-[trans-4-cyanotetrahydropyran-3-yl]-3-[(1-hydroxy-7-methyl-3H-2,1-benzoxaborol-5-yl)amino] pyrazole-4-carboxamide (stereoisomerone)] it was < 10 nM; in that of `N#C[C@@H]1CCOC[C@H]1n1cc(C(N)=O)c(Nc2cc(F)c3c(c2)COB3O)n1` (single isomer, unassigned) [Example 38b, 1-[trans-4-cyanotetrahydropyran-3-yl]-3-[(7-fluoro-1-hydroxy-3H-2,1-benzoxaborol-5-yl)amino]pyrazole-4-carboxamide], < 10 nM.
With `CC1(C)OB(O)c2cc(Nc3nn([C@@H]4COCC[C@H]4C#N)cc3C(N)=O)ccc21` (single isomer, unassigned) [Example 36a, 1-[trans-4-cyanotetrahydro-2H-pyran-3-yl]-3-[(1-hydroxy-3,3-dimethyl-2,1-benzoxaborol-6-yl)amino]pyrazole-4-carboxamide], the IC50 is < 10 nM.
In the case of `CC(C)C1=CB(O)Oc2ccc(Nc3nn(C4COCCC4C#N)cc3C(N)=O)cc21` (stereo not drawn) [Example 30, 1-[trans-4-cyanotetrahydro-2H-pyran-3-yl]-3-[(2-hydroxy-4-isopropyl-1,2-benzoxaborinin-6-yl)amino]pyrazole-4-carboxamide] it was < 10 nM.
In the case of `Cc1c(Nc2nn([C@@H]3COCC[C@H]3C#N)cc2C(N)=O)ccc2c1C=CB(O)O2` (single isomer, unassigned) [Example 17b, 1-[trans-4-cyanotetrahydropyran-3-yl]-3-[(2-hydroxy-5-methyl-1,2-benzoxaborinin-6-yl)amino]pyrazole-4-carboxamide] it was > 50 nM.
As to `CC1=Cc2cc(Nc3nn([C@@H]4CCC[C@H]4C#N)cc3C(N)=O)cc(F)c2OB1O` (single isomer, unassigned) [Example 45a, 1-[trans-2-cyanocyclopentyl]-3-[(8-fluoro-2-hydroxy-3-methyl-1,2-benzoxaborinin-6-yl)amino]pyrazole-4-carboxamide], the IC50 is < 10 nM.
In the case of `N#C[C@@H]1CCOC[C@H]1n1cc(C(N)=O)c(Nc2ccc3c(c2)C2CC2B(O)O3)n1` (relative stereo) [Example 57, 1-(trans-4-cyanotetrahydro-2H-pyran-3-yl)-3-[(2-hydroxy-1a,7b-dihydro-1H-cyclopropa[c][1,2]benzoxaborinin-6-yl)amino]pyrazole-4-carboxamide] it was < 10 nM; in that of `CC(C)C1=CB(O)Oc2ccc(Nc3nn([C@@H]4COCC[C@H]4C#N)cc3C(N)=O)cc21` (single isomer, unassigned) [Example 30b, 1-[trans-4-cyanotetrahydro-2H-pyran-3-yl]-3-[(2-hydroxy-4-isopropyl-1,2-benzoxaborinin-6-yl)amino]pyrazole-4-carboxamide], < 10 nM; in that of `N#C[C@@H]1CCCC[C@H]1n1cc(C(N)=O)c(Nc2ccc3c(c2)B(O)OC3)n1` (relative stereo) [Example 9, 1-(trans-2-cyanocyclohexyl)-3-[(1-hydroxy-3H-2,1-benzoxaborol-6-yl)amino]pyrazole-4-carboxamide], < 10 nM.
As to `CC1=Cc2cc(Nc3nn([C@@H]4CCC[C@H]4C#N)cc3C(N)=O)cc(F)c2OB1O` (relative stereo) [Example 15, 1-(trans-2-cyanocyclopentyl)-3-[(8-fluoro-2-hydroxy-3-methyl-1,2-benzoxaborinin-6-yl)amino]pyrazole-4-carboxamide], the IC50 was < 10 nM.
Turning to `N#C[C@@H]1CCOC[C@H]1n1cc(C(N)=O)c(Nc2ccc3c(c2F)C=CB(O)O3)n1` (relative stereo) [Example 54, 1-(trans-4-cyanotetrahydro-2H-pyran-3-yl)-3-[(5-fluoro-2-hydroxy-1,2-benzoxaborinin-6-yl)amino]pyrazole-4-carboxamide], the IC50 was in the range of 10 to 50 nM.
To `N#C[C@@H]1CCCC[C@H]1n1cc(C(N)=O)c(Nc2ccc3c(c2)COB3O)n1` (relative stereo) [Example 11, 1-(trans-2-cyanocyclohexyl)-3-((1-hydroxy-1,3-dihydrobenzo[c][1,2]oxaborol-5-yl)amino)-1H-pyrazole-4-carboxamide] belongs < 10 nM; to `CC1=Cc2cc(Nc3nn([C@@H]4COCC[C@H]4C#N)cc3C(N)=O)cc(F)c2OB1O` (single isomer, unassigned) [Example 14b, 1-[trans-4-cyanotetrahydro-2H-pyran-3-yl]-3-[(8-fluoro-2-hydroxy-3-methyl-1,2-benzoxaborinin-6-yl)amino]pyrazole-4-carboxamide], 10 to 50 nM; to `N#C[C@@H]1CCOC[C@H]1n1cc(C(N)=O)c(Nc2ccc3c(c2)CCOB3O)n1` (relative stereo) [Example 7, 1-(trans-4-cyanotetrahydro-2H-pyran-3-yl)-3-((1-hydroxy-3,4-dihydro-1H-benzo[c][1,2]oxaborinin-6-yl)amino)-1H-pyrazole-4-carboxamide], < 10 nM.
As to `CC(C)C1=CB(O)Oc2ccc(Nc3nn([C@@H]4CCC[C@H]4C#N)cc3C(N)=O)cc21` (relative stereo) [Example 35, 1-(trans-2-cyanocyclopentyl)-3-[(2-hydroxy-4-isopropyl-1,2-benzoxaborinin-6-yl)amino]pyrazole-4-carboxamide], the IC50 lay within 10 to 50 nM.
To `N#C[C@@H]1CCOC[C@H]1n1cc(C(N)=O)c(Nc2cc(F)c3c(c2)C=CB(O)O3)n1` (single isomer, unassigned) [Example 44a, 1-[trans-4-cyanotetrahydro-2H-pyran-3-yl]-3-[(8-fluoro-2-hydroxy-1,2-benzoxaborinin-6-yl)amino]pyrazole-4-carboxamide] belongs < 10 nM.
In the case of `CCC1=Cc2cc(Nc3nn([C@@H]4COCC[C@H]4C#N)cc3C(N)=O)ccc2OB1O` (relative stereo) [Example 56, 1-(trans-4-cyanotetrahydro-2H-pyran-3-yl)-3-[(3-ethyl-2-hydroxy-1,2-benzoxaborinin-6-yl)amino]pyrazole-4-carboxamide] it was < 10 nM.
To `N#C[C@@H]1CCC[C@H]1n1cc(C(N)=O)c(Nc2ccc3c(c2)B(O)OC3)n1` (relative stereo) [Example 10, 1-(trans-2-cyanocyclopentyl)-3-[(1-hydroxy-3H-2,1-benzoxaborol-6-yl)amino]pyrazole-4-carboxamide] belongs 10 to 50 nM.
Turning to `CCC1=C(CC)c2cc(Nc3nn([C@@H]4COCC[C@H]4C#N)cc3C(N)=O)ccc2OB1O` (relative stereo) [Example 39, 1-(trans-4-cyanotetrahydro-2H-pyran-3-yl)-3-[(3,4-diethyl-2-hydroxy-1,2-benzoxaborinin-6-yl)amino]pyrazole-4-carboxamide], the IC50 was < 10 nM.
To `N#C[C@@H]1CCOC[C@H]1n1cc(C(N)=O)c(Nc2cc(F)c3c(c2)COB3O)n1` (single isomer, unassigned) [Example 38a, 1-[trans-4-cyanotetrahydro-2H-pyran-3-yl]-3-[(7-fluoro-1-hydroxy-3H-2,1-benzoxaborol-5-yl)amino]pyrazole-4-carboxamide] belongs 10 to 50 nM; to `N#C[C@@H]1CCOC[C@H]1n1cc(C(N)=O)c(Nc2ccc3c(c2)B(O)OCC3)n1` (single isomer, unassigned) [Example 42a, 1-[trans-4-cyanotetrahydro-2H-pyran-3-yl]-3-[(1-hydroxy-3,4-dihydro-2,1-benzoxaborinin-7-yl)amino]pyrazole-4-carboxamide], < 10 nM; to `N#CC1CCOCC1n1cc(C(N)=O)c(Nc2ccc3c(c2)C=CB(O)O3)n1` (stereo not drawn) [Example 51, 1-(trans-4-cyanotetrahydro-2H-pyran-3-yl)-3-[(2-hydroxy-1,2-benzoxaborinin-6-yl)amino]pyrazole-4-carboxamide], < 10 nM.
As for `N#CC1CCOCC1n1cc(C(N)=O)c(Nc2cc(Cl)c3c(c2)C=CB(O)O3)n1` (stereo not drawn) [Example 13, 3-((8-chloro-2-hydroxy-2H-benzo[e][1,2]oxaborinin-6-yl)amino)-1-(trans-4-cyanotetrahydro-2H-pyran-3-yl)-1H-pyrazole-4-carboxamide], the IC50 is < 10 nM.
